# Columns and labels:
# [1] = test system: formalin-induced pain behavior; assay: Mouse formalin test; type: in vivo; settings: for decrease of pain behavior in the formalin test: 60 min before formalin
# Protocol: Formalin Test: For 4 days prior to testing, mice were acclimated for 2 hours every day on the test platform. On the day of study, mice were placed for 1 hour on the test platform, and subsequently were administered 10 μl of 2% formalin in the plantar surface of the left paw. The time mice spent either licking or lifting the injected paw was recorded over 2-minute periods at 5-minute intervals for 50 minutes. […] Phase 1 (0-10 min post-injection) is considered to reflect acute pain, whereas phase 2 (10-50 min post-injection) reflects chronic, inflammatory pain. The formalin test: a quantitative study of the analgesic effects of morphine, meperidine, and brain stem stimulation in rats and cats. Pain. December 1977;4(2):161-74) Intragastrical administration by gavage: Compound and vehicle were given via a 18 G Gavage needle at 0.2 ml/30 g of the mouse body weight. Compounds: A CCR-2 antagonist having the formula: [drawing 1085] (CCR-2 Antagonist “A”) was tested in the formalin test and the mouse nerve injury model. A second CCR-2 antagonist: [drawing 1086] (CCR-2 Antagonist “B”) was tested in the formalin test only. Both compounds were diluted in 0.5% methylcellulose and were dosed p.o. at a volume of 0.2 ml per 30 g body-weight. For the formalin test, compounds were administered 60 min before the formalin injection. For the nerve injury model, Compound A was tested 4-5 days after surgery. A third CCR-2 antagonist having the formula: [drawing 1087] (CCR-2 Antagonist “C”) was tested in the rat nerve model, MCP-1 co-administration model, the carrageenan model and the CFA model. The compound was dissolved into ethanol/H2O=9/95 prior to testing.
# [2] = test system: CFA-induced weight bearing deficit; assay: Rat Complete Freund's Adjuvant (CFA) model, weight bearing; type: in vivo, Sprague-Dawley rat
# Protocol: Complete Freund's Adjuvant (CFA): Male Sprague-Dawley rats (Charles River) were injected with CFA (150 μl) intraplantar into their left paw. This study included 3 groups: (1) CCR-2 Antagonist C at 3 mg/kg bid started 2 hours before CFA injection, (2) vehicle group and (3) CCR-2 Antagonist C at 10 mg/kg given on day 3 post-CFA (rats received vehicle on day 0-2)(n=6 per group). Rats were dosed for 3.5 days bid. Before the morning dose and two hours after it, weight bearing and paw size were measured. On the final day of the study (day 3 post-CFA) in addition to weight bearing, paw pressure threshold was also evaluated at 2 hr post dose.
# [3] = test system: mechanical allodynia after spinal nerve ligation; assay: L5-L6 spinal nerve ligation (Chung) model, 50% paw withdrawal threshold / % MPE; type: in vivo, Sprague-Dawley rat; settings: rat
# Protocol: Intragastrical administration by gavage: Compound and vehicle were given via a 15 G Gavage needle at 1 ml/100 g of the rat body weight. L5-L6 Spinal Nerve Ligation (Chung): Male Sprague-Dawley rats (Taconic) were anesthetized with 2% gaseous isofluorane (For induction 3-5% and O2 […], for maintenance 2-3% and O2 […]). Following dorsal skin incision and muscle separation, the posterior interarticular traverse process of L/S1 was exposed and carefully removed with a mircro Rongeur. The L5 and L6 spinal nerves were tightly ligated by a square knot with 6-0 silk thread. The muscles were closed with 4-0 absorbable sutures and the skin was closed with wound clips. […] Animals were pre-tested and non-sensitive rats (50% paw withdrawal threshold above 3 g) were also excluded from compound testing. The results were expressed either as 50% paw withdrawal threshold, or in % maximal possible effect (MPE). MPE was calculated as follows: [formula] Pre-operation cut-off value is 15 grams. CCR-2 Antagonist C was evaluated in a multiple dosing study for 5 days. […] 50% paw withdrawal threshold following multiple dosing (3 mg/kg, PO, b.i.d.) of CCR-2 Antagonist C. Five days post spinal nerve ligation, the animals were tested before and 1 hr after dosing at 7 a.m. each day for 5 days. Data=Mean±SEM, n=10 rats. Efficacy: % MPE. […]
# [4] = test system: mechanical allodynia induced by MCP-1; assay: Intrathecal MCP-1 injection and co-injection with CCR-2 antagonist, 50% paw withdrawal threshold; type: in vivo; settings: rat
# Protocol: Intrathecal administration by intrathecal catheter: Using Hamilton syringe to inject each rat: 5 μl compound or vehicle, 1 μl air and 9 μl vehicle. Intrathecal catheterization. After shaving the back of the head and neck, the rats were placed in a stereotaxic headholder with the head flexed forward. A 8-cm saline filled polyethylene tube (PE5) was placed into the subarachnoid space through a small puncture and threaded caudally so that the caudal tip rested on the rostral edge of the lumbar enlargement. The rats were allowed to recover for a minimum of 2-3 days prior to further study. […] Animals with impaired motor function (e.g. hind limb paralysis) were euthanized. Compounds: A CCR-2 antagonist having the formula: [drawing 1085] (CCR-2 Antagonist “A”) was tested in the formalin test and the mouse nerve injury model. A second CCR-2 antagonist: [drawing 1086] (CCR-2 Antagonist “B”) was tested in the formalin test only. Both compounds were diluted in 0.5% methylcellulose and were dosed p.o. at a volume of 0.2 ml per 30 g body-weight. For the formalin test, compounds were administered 60 min before the formalin injection. For the nerve injury model, Compound A was tested 4-5 days after surgery. A third CCR-2 antagonist having the formula: [drawing 1087] […] At Day 0, 1, 3, 4, 7, 10, 11, 15, 18 and 21 post dosing, 50% paw withdrawal threshold was determined.
smiles,measurement,setting,value
CC(C)[C@]1(C(=O)N2CCc3ccc(C(F)(F)F)cc3C2)CCC(N[C@H]2CCOC[C@H]2C)C1 (some centres unmarked) [CCR-2 Antagonist A],effect in the formalin test versus vehicle,[1]; 1 mg/kg p.o.,No difference with the vehicle group
same,decrease of pain behavior in the formalin test,[1]; 3 mg/kg p.o.,50%
same,effect on phase 2 times of the formalin test,[1]; 3 mg/kg p.o.,significantly decreased
same,effect on phase 2 times of the formalin test,[1]; 30 mg/kg p.o.,significantly decreased
same,effect on phase 1 of the formalin test,"[1]; p.o., phase 1",no effect
CO[C@H]1COCC[C@H]1NC1CC[C@@](C(=O)N2CCc3ncc(C(F)(F)F)cc3C2)(C(C)C)C1 (some centres unmarked) [CCR-2 Antagonist B],decrease of phase 2 of the formalin test,[1]; 10 mg/kg,20%
same,decrease of pain behavior in the formalin test,[1]; 30 mg/kg p.o.,30%
same,decrease of phase 2 of the formalin test,[1]; 30 mg/kg,30%
CC(C)[C@]1(C(=O)N2CCc3ncc(C(F)(F)F)cc3C2)CC[C@@H](NC2CCOC[C@H]2C)C1 (some centres unmarked) [CCR-2 Antagonist C],effect on weight bearing,"[2]; 3 mg/kg bid, day 2 and 3",significantly reversed weight bearing
same,effect on weight bearing on the affected limb,"[2]; 10 mg/kg, day 3",significantly reversed weight bearing
same,efficacy in multiple dosing study (50% paw withdrawal threshold),[3]; 3 mg/kg PO b.i.d. for 5 days,significant efficacy
same,"Efficacy: % MPE, day from which efficacy is significant","[3]; 3 mg/kg PO b.i.d., tested before and 1 hr after dosing each day for 5 days",Significant efficacy was observed starting at day 3
same,anti-allodynic effect (50% paw withdrawal threshold) of co-injection with MCP-1,"[4]; 20 μg/rat via intrathecal catheter with MCP-1 750 ng/rat, day 4, 7, 10 and 11",partial preemptive anti-allodynic effect
same,effect of co-injection with MCP-1 on development of mechanical allodynia,[4]; intrathecal co-injection with MCP-1,inhibited and delayed the development of mechanical allodynia

# Source: patent US20060205761A1, “Ccr-2 antagonists for treatment of neuropathic pain” (priority 2003, published 2006)
